Laboratory results reported in US5919761A, “Peptides for heparin and low molecular weight heparin anticoagulation reversal” (The Board of Regents of the University of Michigan, priority 1995, dated 1999).
Values joined by “and” are separate entries in the source; they are usually repeats but may differ in a detail not shown here. Identical values can stand only once. Peptide text beside a SMILES is read from it.

Legend:
[1] = Percent change in platelet count after standard heparin reversal, cell adhesion ligand analogs, canine study; format: in vivo; conditions: dogs, agent over 10 seconds
Protocol: In addition to hemodynamic changes, Table 15 lists the percent change in platelet count following administration of n-protamine and the selected variants, as well as the factor Xa and factor IIa reversal, as a percent change at 3 minutes post administration of the compound.

[2] = test system: standard, unfractionated heparin; test: Factor Xa and IIa reversal after standard heparin, cell adhesion ligand analogs, canine study; format: in vivo; conditions: dogs, 3 min post administration
Protocol: Anticoagulation reversal was assessed by a number of standard coagulation tests performed upon samples of venous blood in the manner described hereinabove. Measurements were made 3 minutes prior to heparin reversal (baseline) and 3 minutes, 10 minutes, and 30 minutes post-administration of the heparin reversal agent. […] Referring to FIGS. 4a through 4d, compound [+18RGD] performs as well, or better, than n-protamine in the standard coagulation tests performed in these studies.

LMWH (Enoxaparin) = test: Factor Xa and IIa reversal after LMWH Enoxaparin, canine study; format: in vivo; conditions: dogs, 3 min
Protocol: Similar studies were conducted to assess the ability of the protamine-like peptide analogs described in this section to reverse the anticoagulation effects of the LMWH, Enoxaparin. FIG. 5a through FIG. 5d are graphical representations of LMWH anticoagulation activities achieved by n-protamine (Protamine [+21]), and compounds [+18BE], [+18KDEL], and [+18RGD] plotted as a percent of reversal against time in minutes. […] Referring to FIG. 5c, compound [+18RGD] dramatically outperforms n-protamine in reversing the heparin antifactor Xa activity of Enoxaparin.

[3] = Hemodynamic studies and total toxicity score after LMWH reversal at different rates, canine study; conditions: dogs, Logiparin
Protocol: (§2) The anticoagulation-reversing agents were administered rapidly over 10 seconds to maximize hemodynamic effects or more slowly over a 3 minute interval. Changes in LMWH anticoagulation occurring from metabolism alone were determined in a separate group of dogs not given any reversal agent.
Hemodynamic studies were conducted by measuring mean arterial pressure (MAP) in mm Mercury, maximum percent changes in cardiac output (CO) and systemic oxygen consumption (VO2), and heart rate (HR) in beats per minute. Measurements and calculations were made at baseline, before LMWH administration, 3 minutes before reversal, every 30 seconds for 5 minutes after reversal, and at 10, 20, and 30 minutes after reversal.
(§3) TTS were developed that reflected maximum declines in each of four parameters (MAP, CO, VO2 and HR) over the first 5 minutes after reversal in the same manner as described hereinabove.

[4] = Maximum hemodynamic changes and total toxicity score after Enoxaparin reversal, canine study; conditions: dogs, agent over 10 seconds
Protocol: (§4) Seven female dogs (mean weight 15-20 kg) received intravenous standard, unfractionated heparin (150 IU/kg IV) or LMWH (Enoxaparin, Rhone-Poulac, France; 100 IU/kg factor Xa activity) followed by reversal with commercial salmine protamine (n-protamine purchased from Eli Lilly, Indianapolis, Ind., 1.5 mg/kg (100 IU/mg) IV) or an anticoagulation-reversing agent which is a protamine-like peptide variant identified hereinbelow. In these studies, the anticoagulation-reversing agents were administered over a 10 second interval to maximize the hemodynamic effects.

standard heparin = test: Percent reversal of standard heparin anticoagulation by peptide [+18BE] administered at different rates, dogs; format: in vivo
[5] = Hemodynamic studies and total toxicity score after standard heparin reversal at different rates, dogs
Protocol: Hemodynamic studies were conducted by measuring mean arterial pressure (MAP) in mm Mercury, maximum percent changes in cardiac output (CO) and systemic oxygen consumption (VO2), and heart rate (HR) in beats per minute. Measurements and calculations were made at baseline, before LMWH administration, 3 minutes before reversal, every 30 seconds for 5 minutes after reversal.
as §3

LMWH (LHN-1, Logiparin) = test: Percent reversal of LMWH anticoagulation, agents administered at different rates, canine study; format: in vivo, dogs
Protocol: Anticoagulation reversal was assessed by a number of standard coagulation tests performed upon samples of venous blood in the manner described hereinabove. Measurements were made 3 minutes prior to heparin reversal (baseline) and 3 minutes, 10 minutes, and 30 minutes post-administration of the heparin reversal agent.

[6] = Platelet count, leukocyte count and bleeding time after LMWH reversal at different rates, canine study; format: in vivo, dogs
Protocol: as §2

[7] = Maximum hemodynamic changes and total toxicity score after standard heparin reversal, cell adhesion ligand analogs, canine study; conditions: dogs, agent over 10 seconds
Protocol: In these studies, the anticoagulation-reversing agents were administered over a 10 second interval to maximize the hemodynamic effects.
Hemodynamic studies were conducted by measuring mean blood pressure (Mean BP) in mm Mercury, maximum percent changes in cardiac output (CO) and systemic oxygen consumption (VO2), and heart rate (HR) in beats per minute. Measurements and calculations were made at baseline, before administration of standard, unfractionated heparin, 3 minutes before reversal, every 30 seconds for 5 minutes after reversal.
Total toxicity scores (TTS) were developed in accordance with the method described hereinabove that reflected maximum declines in each of four parameters (MAP, CO, VO2 and HR) over the first 5 minutes after reversal.

[8] = Percent change in platelet count after Enoxaparin reversal, canine study; format: in vivo; conditions: dogs, agent over 10 seconds
Protocol: as §4

[9] = Platelet and white cell counts after standard heparin reversal, canine study; format: in vivo; conditions: dogs, 3 minutes post-reversal, resolved by about 30 minutes
Protocol: (§1) Anticoagulation reversal was assessed by a number of standard coagulation tests performed upon samples of venous blood: activated clotting time (ACT), prothrombin time (PT), activated partial thromboplastin time (aPTT), thrombin clotting time (TCT), heparin concentration by assay for FXa inhibitory activity (FXa), white cell count (WBC), and platelet counts (PLT). Measurements were made 3 minutes prior to heparin reversal (baseline) and 3 minutes and 30 minutes post-administration of the heparin reversal agent. The "Heparin" row sets forth the observed reversal as a consequence of expected heparin metabolism or degradation alone.

[10] = Hemodynamic studies and total toxicity score after standard heparin reversal, canine study; conditions: dogs; for ΔMAP: average maximum decline in first five minutes after peptide administration; for average total toxicity score (TTS±SD): first 5 minutes after reversal, more negative = more toxic; for ΔCO / ΔVO2: maximum percent change
Protocol: As used hereinafter, the peptides will be identified by their total cationic charge value, e.g., [+8], [+16], etc.
Hemodynamic studies were conducted by measuring mean arterial pressure (MAP), heart rate (HR), and maximum percent changes in cardiac output (CO) and systemic oxygen consumption (VO2).
Total toxicity scores (TTS) were developed that reflected maximum declines in each of four parameters (MAP, CO, VO2 and HR) over the first 5 minutes after reversal, the latter being the time of expected greatest adverse hemodynamic effect. The maximum changes occurring in an individual dog over the first 5 minutes were divided by the standard deviation derived from the entire group of tested animals and the four scores were added, resulting in a TTS for each individual dog. The TTS values for each dog were then summed to obtain an average TTS and SD for each peptide studied.

[11] = test system: standard, unfractionated heparin; test: Percent reversal of standard heparin anticoagulation by variant peptides and protamine, in vivo canine study, coagulation tests; design: species or system dogs; conditions: for Percent reversal of heparin anticoagulation, ACT: heparin 150 IU/kg IV, agent 1.5 mg/kg IV over 10 seconds
Protocol: Data are expressed as a mean ±1 SD. Statistical analysis using linear regression for determination of correlation coefficients, and analysis of variance (ANOVA) or unpaired two-way Student's t-test; p<0.05 was accepted as statistically significant.
as §1

[12] = administered over 10 sec, 3 min
[13] = administered over 10 sec, 10 min
[14] = administered over 10 sec, 30 min
[15] = administered over 3 min, 10 min
[16] = administered over 3 min, 30 min
[17] = dogs, Logiparin, administered over 10 sec
[18] = dogs, Logiparin, administered over 3 min

## CC(=O)N[C@@H](CCC(=O)O)C(=O)N[C@@H](C)C(=O)N[C@@H](C)C(=O)N[C@@H](CCCCN)C(=O)N[C@@H](CCCCN)C(=O)N[C@@H](C)C(=O)N[C@@H](C)C(=O)N[C@@H](CCCCN)C(=O)N[C@@H](CCCCN)C(=O)N[C@@H](C)C(=O)N[C@@H](CCCCN)C(=O)N[C@@H](CCCCN)C(=O)N[C@@H](C)C(=O)N[C@@H](C)C(=O)N[C@@H](CCCCN)C(=O)N[C@@H](CCCCN)C(=O)N[C@@H](C)C(=O)N[C@@H](CCCCN)C(=O)N[C@@H](CCCCN)C(=O)N[C@@H](C)C(=O)N[C@@H](C)C(=O)N[C@@H](CCCCN)C(=O)N[C@@H](CCCCN)C(=O)N[C@@H](C)C(=O)N[C@@H](CCCCN)C(=O)N[C@@H](CCCCN)C(=O)N[C@@H](C)C(=O)N[C@@H](C)C(=O)N[C@@H](CCCCN)C(=O)N[C@@H](CCCCN)C(=O)N[C@@H](C)C(=O)N[C@@H](CCCCN)C(=O)N[C@@H](CCCCN)C(N)=O [[+18BE], acetyl-EA2 (K2 A2 K2 A)4 K2 amide] (Ac-EAAKKAAKKAKKAAKKAKKAAKKAKKAAKKAKK-NH2)
[1]
  Platelet (percent change in platelet count): -46%
[2]
  IIa Reversal: 100%
  Xa Reversal: 99%
LMWH (Enoxaparin)
  IIa Reversal: 88%
  Xa Reversal: 40%
[3]; administered over 10 sec
  Total Toxicity Score: -2.3 ± 3.6
  ΔCO: -11%
  ΔHr: -13 beats per minute
  ΔMAP: -8 mm Mercury
  ΔVO2: -12%
[3]; administered over 3 min
  Total Toxicity Score: -2.2 ± 1.7
  ΔCO: -7%
  ΔHr: -5 beats per minute
  ΔMAP: 0 mm Mercury
  ΔVO2: -10%
[4]; Enoxaparin 100 IU/kg, 5 minutes
  Maximum hemodynamic change, Mean BP: -1 mm Mercury
[4]; Enoxaparin
  Total Toxicity Score (TTS): -3.89 and -3.89 ± 2.37
[4]; Enoxaparin, 5 minutes
  Maximum hemodynamic change, CO: -5%
  Maximum hemodynamic change, HR: -4 beats/min
  Maximum hemodynamic change, VO2: -6%
Standard heparin; [12]
  Percent reversal of standard heparin anticoagulation, FNa: 100%
  Percent reversal of standard heparin anticoagulation, FXa: 99%
  Percent reversal of standard heparin anticoagulation, TCT: 100%
Standard heparin; [13]
  Percent reversal of standard heparin anticoagulation, ACT: 98%
  Percent reversal of standard heparin anticoagulation, FNa: 99%
  Percent reversal of standard heparin anticoagulation, FXa: 95%
  Percent reversal of standard heparin anticoagulation, TCT: 98%
Standard heparin; [14]
  Percent reversal of standard heparin anticoagulation, ACT: 96%
  Percent reversal of standard heparin anticoagulation, FNa: 100%
  Percent reversal of standard heparin anticoagulation, FXa: 97%
  Percent reversal of standard heparin anticoagulation, TCT: 98%
Standard heparin; administered over 3 min, 3 min
  Percent reversal of standard heparin anticoagulation, FNa: 99%
  Percent reversal of standard heparin anticoagulation, FXa: 99%
  Percent reversal of standard heparin anticoagulation, TCT: 100%
Standard heparin; [15]
  Percent reversal of standard heparin anticoagulation, ACT: 98%
  Percent reversal of standard heparin anticoagulation, FNa: 98%
  Percent reversal of standard heparin anticoagulation, FXa: 97%
  Percent reversal of standard heparin anticoagulation, TCT: 100%
Standard heparin; [16]
  Percent reversal of standard heparin anticoagulation, ACT: 98%
  Percent reversal of standard heparin anticoagulation, FNa: 99%
  Percent reversal of standard heparin anticoagulation, FXa: 96%
  Percent reversal of standard heparin anticoagulation, TCT: 100%
Standard heparin; dogs (n=7), administered over 10 sec, 3 min post-administration
  Percent reversal of standard heparin anticoagulation, ACT: 95%
Standard heparin; dogs (n=7), administered over 3 min, 3 min post-administration
  Percent reversal of standard heparin anticoagulation, ACT: 98%
[5]; administered over 10 sec
  Total Toxicity Score: -2.14 ± 0.40
  ΔCO: -9%
  ΔHR: -8 beats per minute
  ΔMAP: -1 mm Mercury
  ΔVO2: -9%
[5]; administered over 3 min
  Total Toxicity Score: -1.96 ± 0.55
  ΔCO: -17%
  ΔHR: -8 beats per minute
  ΔMAP: 1 mm Mercury
  ΔVO2: -10%
LMWH (LHN-1, Logiparin); [12]
  Percent reversal of LMWH anticoagulation, FNa: 99%
  Percent reversal of LMWH anticoagulation, FXa: 73%
  Percent reversal of LMWH anticoagulation, TCT: 100%
LMWH (LHN-1, Logiparin); [13]
  Percent reversal of LMWH anticoagulation, ACT: 78%
  Percent reversal of LMWH anticoagulation, FNa: 83%
  Percent reversal of LMWH anticoagulation, FXa: 51%
  Percent reversal of LMWH anticoagulation, TCT: 95%
LMWH (LHN-1, Logiparin); [14]
  Percent reversal of LMWH anticoagulation, ACT: 81%
  Percent reversal of LMWH anticoagulation, FNa: 79%
  Percent reversal of LMWH anticoagulation, FXa: 59%
  Percent reversal of LMWH anticoagulation, TCT: 95%
LMWH (LHN-1, Logiparin); administered over 3 min, 3 min
  Percent reversal of LMWH anticoagulation, FNa: 94%
  Percent reversal of LMWH anticoagulation, FXa: 91%
  Percent reversal of LMWH anticoagulation, TCT: 100%
LMWH (LHN-1, Logiparin); [15]
  Percent reversal of LMWH anticoagulation, ACT: 95%
  Percent reversal of LMWH anticoagulation, FNa: 99%
  Percent reversal of LMWH anticoagulation, FXa: 68%
  Percent reversal of LMWH anticoagulation, TCT: 100%
LMWH (LHN-1, Logiparin); [16]
  Percent reversal of LMWH anticoagulation, ACT: 97%
  Percent reversal of LMWH anticoagulation, FNa: 84%
  Percent reversal of LMWH anticoagulation, FXa: 60%
  Percent reversal of LMWH anticoagulation, TCT: 99%
LMWH (LHN-1, Logiparin); dogs, Logiparin, agent administered over 10 sec, 3 min post-administration
  Percent reversal of LMWH anticoagulation, ACT: 65%
LMWH (LHN-1, Logiparin); dogs, Logiparin, agent administered over 3 min, 3 min post-administration
  Percent reversal of LMWH anticoagulation, ACT: 89%
[6]; [17]
  Maximal decline in leukocyte count: -1%
  Maximal thrombocytopenia: -44%
[6]; [18]
  Maximal decline in leukocyte count: -7%
  Maximal thrombocytopenia: -49%
[6]; dogs, Logiparin, by 10 minutes, administered over a 3 minute interval
  thrombocytopenia (platelet count change): -8%
[6]; dogs, Logiparin, by 30 minutes, administered over a 3 minute interval
  platelet count rebound: +35%
[6]; selected animals, given over a 3 minute interval
  bleeding time: ≤ 8 min
[7]; standard heparin 150 IU/kg IV, 5 minutes
  Maximum hemodynamic change, Mean BP: -1 mm Mercury
[7]; standard heparin, 5 minutes
  Maximum hemodynamic change, CO: -9%
  Maximum hemodynamic change, HR: -8 beats/min
  Maximum hemodynamic change, VO2: -9%
[7]; standard unfractionated heparin
  Total Toxicity Score: -2.41 ± 0.47
[8]
  Platelet (percent change in platelet count): -35%

## NCCCC[C@H](NC(=O)[C@H](CCCCN)NC(=O)[C@H](CCCCN)NC(=O)[C@H](CCCCN)NC(=O)CNC(=O)CNC(=O)[C@H](CCCCN)NC(=O)[C@H](CCCCN)NC(=O)[C@H](CCCCN)NC(=O)[C@H](CCCCN)NC(=O)CNC(=O)CNC(=O)[C@H](CCCCN)NC(=O)[C@H](CCCCN)NC(=O)[C@H](CCCCN)NC(=O)[C@H](CCCCN)NC(=O)CNC(=O)CNC(=O)[C@H](CCCCN)NC(=O)[C@H](CCCCN)NC(=O)[C@H](CCCCN)NC(=O)[C@H](CCCCN)NC(=O)CNC(=O)CNC(=O)[C@H](CCCCN)NC(=O)[C@H](CCCCN)NC(=O)[C@H](CCCCN)NC(=O)[C@H](CCCCN)NC(=O)[C@@H]1CCCN1)C(=O)O [[+20], P(K4 G2)4 K4] (H-PKKKKGGKKKKGGKKKKGGKKKKGGKKKK-OH)
[9]
  platelet counts: thrombocytopenia
[10]
  ΔHR: -38
  ΔMAP: -31
  average total toxicity score (TTS±SD): -6.1±3.5
  ΔCO: -40%
  ΔVO2: -31%

## PK4 S3 KPVK6 PKVSK6 G2 K4 [[+21]]
[11]; dogs, standard heparin
  in vivo heparin reversal (summary): nearly complete reversal
[11]; dogs, 3 min post-administration
  Percent reversal of heparin anticoagulation, ACT: 81%
[11]; dogs, 30 min
  Percent reversal of heparin anticoagulation, ACT: 85%
[11]; same study, 3 min
  Percent reversal of heparin anticoagulation, APTT: 88%
  Percent reversal of heparin anticoagulation, FNa: 59%
  Percent reversal of heparin anticoagulation, FXa: 55%
  Percent reversal of heparin anticoagulation, PT: 97%
  Percent reversal of heparin anticoagulation, TCT: 91%
[11]; same study, 30 min
  Percent reversal of heparin anticoagulation, APTT: 85%
  Percent reversal of heparin anticoagulation, FXa: 49%
  Percent reversal of heparin anticoagulation, PT: 93%
  Percent reversal of heparin anticoagulation, TCT: 79%
[9]
  platelet counts: thrombocytopenia
[10]
  ΔHR: -21
  ΔMAP: -35
  average total toxicity score (TTS±SD): -6.9±3.8
  ΔCO: -44%
  ΔVO2: -38%
[6]; [17]
  Maximal thrombocytopenia: -43%
